Earlier results on 2 molecules are cited in patent US20090162921A1 (priority 2005, published 2009).

This data set relates to mouse. Particulars: in vivo; for LD50: po.

Regarding `C[As+](C)(C)CC(=O)[O-]` [AB, arsenobetaine], the “LD50 (50% of the fatal dose in mouse)” value is 10000 mg/kg and the LD50 was 10000.

For arsenic acid [As(V)], the “LD50 (50% of the fatal dose in mouse)” value was 14 to 18 mg/kg and the LD50 was 14 to 18 mg/kg.
